From patent US12533338B2, “Enhanced gene delivery to natural killer cells, hematopoietic stem cells and macrophages” (priority 2015, dated 2026)
“Also recorded” adds a separate entry of the source. Read-outs that look alike come from different tables or passages of the source.

Tests used:
NK cells [1] = test: Dose dependence of lentiviral transduction with LeGO-G2 virus, GFP+ cells by flow cytometry; assay type: cell-based, human
Description: Primary human NK cells and NK-92 cells are transduced with LeGO-G2 virus in the presence of varying doses of BX795 or iX for 6 hours. GFP expression is analyzed by flow cytometry 72 hours after transduction. GFP+ cell percentages are shown on graph. Data from three independent experiments, each run in triplicates.
For each lentiviral transduction, 0.25×10^6 NK cells per well were seeded in a 24-well plate (BD Biosciences) and mixed with an appropriate amount of virus supernatant in the presence of 8 μg/ml of protamine sulfate (Sigma-Aldrich) or polybrene (Sigma-Aldrich) in a final volume of no more than 1 ml. The cytokines were replenished and plates were centrifuged at 1000×g for 1 hour at room temperature. After centrifugation, without removing viral supernatants, the plates were incubated at 37° C., 5% CO2 for 4-6 hours. At the end of the incubation, a second centrifugation at 1000×g for 1 hour at room temperature was carried out, after which the supernatants were removed from the wells and 1 ml of fresh NK cell growth medium (CellGro SCGM supplemented with 10% Human AB Serum) per well was added. The cells were maintained in this medium with daily addition cytokines (IL-2: 1000 U/ml, and IL-21: 20 ng/ml. Combinations of cytokines were used as indicated in FIG. 1. Only IL-2 and IL-21 were used in the rest of the experiments) for at least 3 days before acquisition of eGFP expression was carried out. In indicated experiments, the following inhibitors were present during the transduction: BX795 (Invivogen) and (5Z)-7-Oxozeaenol (iX) (Tocris).
For the transduction of cell lines, 2×10^5 cells per well were seeded into 24-well plates. Treatment with 6 μM BX795 and (5Z)-7-Oxozeaenol (iX) was initiated simultaneously with the transduction process. Appropriate amount of viral supernatants were added into the wells along with protamine sulfate (NK92, cells) and the total volume was adjusted to 500 μl. The plates were centrifuged at 1000×g for 1 hour followed by incubation at 37° C., 5% CO2 for 4-6 hours, after which the virus containing supernatant was removed and fresh growth media was added. The cells were grown for at least 3 days before acquisition of eGFP expression was carried out.
All antibody stainings for flow cytometry were done according to the following protocol: For surface stainings, the cells were washed once with PBS and incubated with appropriate amounts of antibody at 4° C. for 30 min. The labeled cells were then washed with PBS and fixed in 1% PFA prior to data acquisition. Data acquisition was done on a FACSCalibur (BD Biosciences), CyFlow ML (Partec GmbH, Munster, Germany) and LSRII-Fortessa (BD Biosciences) with standard filters. Data were analysed with the FlowJo software (TreeStar Inc.). […]

NK cells [2] = test: Annexin-V/PI staining for toxicity; assay type: cell-based; details: for toxicity on NK cells (apoptotic and dead cells) compared to DMSO controls: 1.5 μM; for toxicity on NK cells (apoptotic and dead cells): 6 μM
Source text: FIG. 2B contains two bar graphs comparing apoptotic to dead Annexin −V^+/PI^−cells.
Remarkably, the use of iX at the optimum concentration presents no immediate toxic effects on NK cells as determined by Annexin-V/PI staining after […] treatment (FIG. 2b).

RIG-I = RIG-I expression at protein level during lentiviral transduction; assay type: cell-based; details: for change in RIG-I expression at the protein level: after the 6 hour transduction period; for change in RIG-I expression: at 24 hours, FIG. 3
Source text: (§1) FIG. 3 contains photos of a gel showing iX treatment during lentiviral transduction decreases RIG-I and IRF-3.

IRF3 = IRF3 expression at protein level during lentiviral transduction; assay type: cell-based; details: for change in IRF3 expression at the protein level: after the 6 hour transduction period; for change in IRF3 expression: at 24 hours, FIG. 3
Source text: as §1

NK92 cells = test: IFNγ secretion upon exposure to lentiviral particles; assay type: cell-based, human; details: FIG. 4
Source text: FIG. 4 contains two bar graphs showing that iX treatment interferes with anti-viral cytokines IFNγ and TNF secretion.
(FIG. 4). […] (FIG. 4). […] (FIG. 4).

NK-92 cells [3] = test: Gene expression profiling by RNAseq during lentiviral transduction; assay type: cell-based, human; details: end of 6 hour transduction, FIGS. 6A-H
Description: Gene expression profiling by RNAseq for identification of pathways triggered by lentivirus entry in the absence and presence of small molecule inhibitors are assessed. NK-92 cells are transduced as previously described. At the end of the 6 hour transduction protocol, RNA from the cells is extracted and sequenced on a HiSeq 2500 instrument. After quality control, the reads are mapped to the human genome using the STAR aligner and gene abundance is estimated with HT-Seq. Differential expression is analyzed using DeSeq software. […] (FIG. 5).

NK cells [4] = details: cited from earlier work
primary human NK cells = test: Lentiviral transduction (LeGO-G2, GFP expression) of primary NK cells; assay type: cell-based; details: 6 μM during lentiviral transduction, FIG. 1
Description: (§2) FIG. 1 contains two bar graphs showing the inhibition of innate immune signaling with iX enhances lentiviral transduction efficiency in NK cells. NK-92 cells and primary human NK cells isolated from healthy donor PBMCs were subjected to lentiviral transduction in the presence of 6 μM BX795 or iX for 6 hours. GFP expression is acquired 72 hours later. +cell percentages are shown on graph.
[…]. Next day cells were transfected with 30 μg of LeGO-G2 plasmid (courtesy of Prof. Boris Fehse, University Medical Center Hamburg-Eppendorf, Hamburg, Germany), 15 μg of pMDLg/pRRE (Addgene, Cambridge, Mass., USA), 10 μg of pRSV-REV (Addgene) and 5 μg of phCMV-VSV-G (Addgene) using calcium phosphate transfection kit (Sigma-Aldrich) in the presence of 25 μM Chloroquine (Sigma-Aldrich). […]
The peripheral blood mononuclear cells (PBMCs) were isolated by gradient centrifugation, using Lymphoprep (Nyegaard, Oslo, Norway) and washed twice with phosphate-buffered saline (PBS) (GIBCO, Grand Island, N.Y., USA). Cell count and viability were assessed by Turk and Trypan Blue dye exclusion. […]
(§3) All antibody stainings for flow cytometry were done according to the following protocol: For surface stainings, the cells were washed once with PBS and incubated with appropriate amounts of antibody at 4° C. for 30 min. […] Data were analysed with the FlowJo software (TreeStar Inc.). […]

NK-92 cells [5] = test: Lentiviral transduction (GFP expression) of NK-92 cell line; assay type: cell-based, human; details: 6 μM during lentiviral transduction, NK-92, FIG. 1
Description: as §2
[…]. Next day cells were transfected with 30 μg of LeGO-G2 plasmid (courtesy of Prof. Boris Fehse, University Medical Center Hamburg-Eppendorf, Hamburg, Germany), 15 μg of pMDLg/pRRE (Addgene, Cambridge, Mass., USA), 10 μg of pRSV-REV (Addgene) and 5 μg of phCMV-VSV-G (Addgene) using calcium phosphate transfection kit (Sigma-Aldrich) in the presence of 25 μM Chloroquine (Sigma-Aldrich). 10 hours after transfection, the medium was changed and thereafter virus containing supernatant was collected every 24 hours for 2-3 days and stored in −80° C. until further use. A small aliquot from each production was used to determine viral titers by transduction of 293FT cells with serially diluted amounts of virus supernatant. […]
as §3

CD34+ HSCs = test: CRISPR/Cas9 gene editing of Beta 2 Microglobulin, loss of B2M expression by flow cytometry; assay type: cell-based, human; details: 1 μM iX, hematopoietic stem cells, FIG. 7, n=4
Source text: (§4) The recent emergence of the clustered, regularly interspaced, palindromic repeats (CRISPR) system for gene editing has the potential to overcome these limitations. The CRISPR technology utilizes a fixed nuclease, often the CRISPR-associated protein 9 (Cas9) from Streptococcus pyogenes, in combination with a short guide RNA (gRNA) to target the nuclease to a specific DNA sequence. We confirmed that gRNA recognition and thus editing efficacy could be increased with introduction of iX inhibitor. […]
(§5) The following commercially available guide RNAs from Origene Technologies were tested against Beta 2 Microglobulin: […] […] 48 hours post-transfection, cells were stained with anti-B2M antibody (clone:2M2, Biolegend) to compare loss of (32 m expression. Cells were then analysed using flowcytometry as described below.
as §3

NK92 cell line = test: as above; assay type: cell-based, human; details: 1 μM iX, NK cells (NK92), FIG. 7, n=4
Source text: as §4, §5, §3

[6] = system: Human primary macrophages; test: as above; assay type: cell-based; details: 1 μM iX, FIG. 7, n=4
Source text: as §4, §5, §3

| SMILES | optimum dose for lentiviral gene delivery (NK cells [1]; NK cells) [µM] | toxicity on NK cells (apoptotic and dead cells) compared to DMSO controls (NK cells [2]) | toxicity on NK cells (apoptotic and dead cells) (NK cells [2]) | change in RIG-I expression at the protein level (RIG-I) | change in RIG-I expression (RIG-I) | change in IRF3 expression at the protein level (IRF3) | change in IRF3 expression (IRF3) | effect on anti-viral response pathways at mRNA level (NK-92 cells [3]) | other results |
| --- | --- | --- | --- | --- | --- | --- | --- | --- | --- |
| O=C(NCCCNc1nc(Nc2cccc(NC(=O)N3CCCC3)c2)ncc1I)c1cccs1 [BX795] | 6 | no toxicity | quite small but statistically significant increase | not detectable | significant decrease | not detectable | significant decrease | failed to fully suppress similar anti-viral responses | secretion of IFNγ (NK92 cells; 24 hours after exposure to lentiviral particles): significantly trigger similar effect; transduction efficiency in NK cells (NK cells [4]; previously reported (Sutlu et al., 2012)): dramatically increases; effect of concentration on genetic modification efficiency (NK cells [4]; shown previously): dose-dependent effect |
| COc1cc(O)c2c(c1)/C=C/C[C@H](O)[C@H](O)C(=O)/C=C\C[C@H](C)OC2=O [iX, (5Z)-7-Oxozeaenol] | 1.5 | no significant toxicity | no signs of immediate toxicity | not detectable | significant decrease | not detectable | significant decrease | affected pathways associated with anti-viral responses | improvement in lentiviral gene delivery (primary human NK cells): statistically significant improvement; improvement in lentiviral gene delivery (NK-92 cells [5]): statistically significant improvement; enhancement of lentiviral gene delivery compared to BX795 (NK cells [1]; NK cells): to a further extent; also recorded: significantly higher extent; effect of concentration on genetic modification efficiency (NK cells [1]; varying doses, FIG. 2A): dose-dependent effect; β2M gene editing efficacy (CD34+ HSCs): increased (32M editing significantly; β2M gene editing efficacy (NK92 cell line): increased (32M editing significantly; β2M gene editing efficacy [6]: increased (32M editing significantly; extent of downregulation in RIG-I compared to BX795 (RIG-I): significantly more; extent of downregulation in IRF3 compared to BX795 (IRF3): significantly more; secretion of IFNγ (NK92 cells; six hours, during lentiviral gene delivery): significantly decreased |
